{"source": "ChEMBL document CHEMBL1201862", "about": "“PubChem BioAssay data set” (2004)", "assay_in_all_cases": "NCI-60 cell line screen, 48 h", "key": {"SK-MEL-5": {"test_system": "SK-MEL-5"}, "SF-295": {"test_system": "SF-295"}, "MOLT-4": {"test_system": "MOLT-4"}, "UO-31": {"test_system": "UO-31"}, "SK-OV-3": {"test_system": "SK-OV-3"}, "OVCAR-8": {"test_system": "OVCAR-8"}, "Hs-578T": {"test_system": "Hs-578T"}, "TK-10": {"test_system": "TK-10"}, "ACHN": {"test_system": "ACHN"}, "MDA-N": {"test_system": "MDA-N"}, "BT-549": {"test_system": "BT-549"}, "HCT-116": {"test_system": "HCT-116"}, "786-0": {"test_system": "786-0"}, "SF-268": {"test_system": "SF-268"}, "Malme-3M": {"test_system": "Malme-3M"}, "U-251": {"test_system": "U-251"}, "SNB-19": {"test_system": "SNB-19"}, "SN12C": {"test_system": "SN12C"}, "KM12": {"test_system": "KM12"}, "IGROV-1": {"test_system": "IGROV-1"}, "K562": {"test_system": "K562"}, "CCRF-CEM": {"test_system": "CCRF-CEM"}, "UACC-62": {"test_system": "UACC-62"}, "SK-MEL-2": {"test_system": "SK-MEL-2"}, "COLO 205": {"test_system": "COLO 205"}, "HT-29": {"test_system": "HT-29"}, "NCI-H23": {"test_system": "NCI-H23"}, "SK-MEL-28": {"test_system": "SK-MEL-28"}, "OVCAR-4": {"test_system": "OVCAR-4"}, "M14": {"test_system": "M14"}, "CAKI-1": {"test_system": "CAKI-1"}, "PC-3": {"test_system": "PC-3"}, "HCT-15": {"test_system": "HCT-15"}, "LOX IMVI": {"test_system": "LOX IMVI"}, "SF-539": {"test_system": "SF-539"}, "MDA-MB-435": {"test_system": "MDA-MB-435"}, "NCI-H522": {"test_system": "NCI-H522"}, "NCI-H460": {"test_system": "NCI-H460"}, "DU-145": {"test_system": "DU-145"}, "A498": {"test_system": "A498"}, "SR": {"test_system": "SR"}, "RPMI-8226": {"test_system": "RPMI-8226"}, "EKVX": {"test_system": "EKVX"}, "HCC 2998": {"test_system": "HCC 2998"}, "MDA-MB-231": {"test_system": "MDA-MB-231"}, "SNB-75": {"test_system": "SNB-75"}, "NCI/ADR-RES": {"test_system": "NCI/ADR-RES"}, "T47D": {"test_system": "T47D"}, "UACC-257": {"test_system": "UACC-257"}, "HOP-62": {"test_system": "HOP-62"}, "A549": {"test_system": "A549"}, "MCF7": {"test_system": "MCF7"}, "SW-620": {"test_system": "SW-620"}, "OVCAR-3": {"test_system": "OVCAR-3"}, "HL-60": {"test_system": "HL-60"}, "OVCAR-5": {"test_system": "OVCAR-5"}, "NCI-H226": {"test_system": "NCI-H226"}}, "note": "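All cell lines were grown in 96-well plates and treated with compound for 48 hours. GI50 = concentration required for 50% inhibition of growth.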 Calls of active or inactive are those of the source. Rule as the data show it: active = GI50 up to about 1.1 µM and inactive = higher."}
{"compound": "COC(=O)C1(Cc2ccc3c(c2)CCC3)Cc2ccccc2C1=O", "note": "(configuration not stated)", "values": [{"measurement": "GI50", "setting": "SK-MEL-5", "result": "4.3 µM (inactive)"}, {"measurement": "GI50", "setting": "SF-295", "result": "9.98 µM (inactive)"}, {"measurement": "GI50", "setting": "MOLT-4", "result": "4.45 µM (inactive)"}, {"measurement": "GI50", "setting": "UO-31", "result": "17.1 µM (inactive)"}, {"measurement": "GI50", "setting": "SK-OV-3", "result": "15.7 µM (inactive)"}, {"measurement": "GI50", "setting": "OVCAR-8", "result": "26.1 µM (inactive)"}, {"measurement": "GI50", "setting": "Hs-578T", "result": "13.4 µM (inactive)"}, {"measurement": "GI50", "setting": "TK-10", "result": "12.3 µM (inactive)"}, {"measurement": "GI50", "setting": "ACHN", "result": "33.3 µM (inactive)"}, {"measurement": "GI50", "setting": "MDA-N", "result": "2.72 µM (inactive)"}, {"measurement": "GI50", "setting": "BT-549", "result": "11.5 µM (inactive)"}, {"measurement": "GI50", "setting": "HCT-116", "result": "7.8 µM (inactive)"}, {"measurement": "GI50", "setting": "786-0", "result": "24.5 µM (inactive)"}, {"measurement": "GI50", "setting": "SF-268", "result": "22.1 µM (inactive)"}, {"measurement": "GI50", "setting": "Malme-3M", "result": "17.5 µM (inactive)"}, {"measurement": "GI50", "setting": "U-251", "result": "13.4 µM (inactive)"}, {"measurement": "GI50", "setting": "SNB-19", "result": "20.7 µM (inactive)"}, {"measurement": "GI50", "setting": "SN12C", "result": "27.6 µM (inactive)"}, {"measurement": "GI50", "setting": "KM12", "result": "1.55 µM (inactive)"}, {"measurement": "GI50", "setting": "IGROV-1", "result": "14 µM (inactive)"}, {"measurement": "GI50", "setting": "K562", "result": "3.31 µM (inactive)"}, {"measurement": "GI50", "setting": "CCRF-CEM", "result": "6.97 µM (inactive)"}, {"measurement": "GI50", "setting": "UACC-62", "result": "8.43 µM (inactive)"}, {"measurement": "GI50", "setting": "SK-MEL-2", "result": "13.2 µM (inactive)"}, {"measurement": "GI50", "setting": "COLO 205", "result": "9.66 µM (inactive)"}, {"measurement": "GI50", "setting": "HT-29", "result": "5.46 µM (inactive)"}, {"measurement": "GI50", "setting": "NCI-H23", "result": "19 µM (inactive)"}, {"measurement": "GI50", "setting": "SK-MEL-28", "result": "7.14 µM (inactive)"}, {"measurement": "GI50", "setting": "OVCAR-4", "result": "26.2 µM (inactive)"}, {"measurement": "GI50", "setting": "M14", "result": "9.53 µM (inactive)"}, {"measurement": "GI50", "setting": "CAKI-1", "result": "19.6 µM (inactive)"}, {"measurement": "GI50", "setting": "PC-3", "result": "7.69 µM (inactive)"}, {"measurement": "GI50", "setting": "HCT-15", "result": 6.76, "unit": "µM"}, {"measurement": "GI50", "setting": "LOX IMVI", "result": "10.5 µM (inactive)"}, {"measurement": "GI50", "setting": "SF-539", "result": "16 µM (inactive)"}, {"measurement": "GI50", "setting": "MDA-MB-435", "result": "2.97 µM (inactive)"}, {"measurement": "GI50", "setting": "NCI-H522", "result": "7.66 µM (inactive)"}, {"measurement": "GI50", "setting": "NCI-H460", "result": "28.4 µM (inactive)"}, {"measurement": "GI50", "setting": "DU-145", "result": "16.6 µM (inactive)"}, {"measurement": "GI50", "setting": "A498", "result": "18.4 µM (inactive)"}, {"measurement": "GI50", "setting": "SR", "result": "6.47 µM (inactive)"}, {"measurement": "GI50", "setting": "RPMI-8226", "result": "9.91 µM (inactive)"}, {"measurement": "GI50", "setting": "EKVX", "result": "17.3 µM (inactive)"}, {"measurement": "GI50", "setting": "HCC 2998", "result": "14.6 µM (inactive)"}, {"measurement": "GI50", "setting": "MDA-MB-231", "result": "27.2 µM (inactive)"}, {"measurement": "GI50", "setting": "SNB-75", "result": "10.8 µM (inactive)"}, {"measurement": "GI50", "setting": "NCI/ADR-RES", "result": "7.06 µM (inactive)"}, {"measurement": "GI50", "setting": "T47D", "result": "19.3 µM (inactive)"}, {"measurement": "GI50", "setting": "UACC-257", "result": "18.5 µM (inactive)"}, {"measurement": "GI50", "setting": "HOP-62", "result": "14.2 µM (inactive)"}, {"measurement": "GI50", "setting": "A549", "result": "21.1 µM (inactive)"}, {"measurement": "GI50", "setting": "MCF7", "result": "7.06 µM (inactive)"}, {"measurement": "GI50", "setting": "SW-620", "result": "4.49 µM (inactive)"}, {"measurement": "GI50", "setting": "OVCAR-3", "result": "14.5 µM (inactive)"}, {"measurement": "GI50", "setting": "HL-60", "result": "3.12 µM (inactive)"}, {"measurement": "GI50", "setting": "OVCAR-5", "result": "26.4 µM (inactive)"}, {"measurement": "GI50", "setting": "NCI-H226", "result": "18.2 µM (inactive)"}]}
